From patent publication US9193719B2, “1,2,4-triazol-5-ones and analogs exhibiting anti-cancer and anti-proliferative activities” (Deciphera Pharmaceuticals, LLC, priority 2013, dated 2015)

Columns and labels:
[1] = molecular target: T1, unphosphorylated PDGFRβ kinase (uPDGFRβ, Seq. ID No. 3) (Homo sapiens, UniProt P09619); experiment: uPDGFRβ kinase enzymatic assay (pyruvate kinase/lactate dehydrogenase coupled); format: biochemical; conditions: ATP 500 μM, rate 1.5 to 2.5 h
T1 construct: purchased DeCode
Description: Unphosphorylated PDGFRβ (uPDGFRβ) Kinase (Seq. ID No. 3) Assay
Activity of unphosphorylated PDGFRβ kinase (uPDGFRβ, Seq. ID No. 3) was determined by following the production of ADP from the kinase reaction with ATP and poly E4Y as substrates through coupling with the pyruvate kinase/lactate dehydrogenase system (e.g., Schindler et al. Science (2000) 289: 1938-1942). In this assay, the oxidation of NADH (thus the decrease at A340 nm) was continuously monitored spectrophometrically. The reaction mixture (100 μL) contained PDGFRβ (DeCode, 15.7 nM), polyE4Y (2.5 mg/mL), MgCl2 (10 mM), pyruvate kinase (4 units), lactate dehydrogenase (0.7 units), phosphoenol pyruvate (1 mM) and NADH (0.28 mM) and ATP (500 μM) in a 90 mM Tris buffer containing 0.2% octyl-glucoside and 1% DMSO, at pH 7.5. The inhibition reaction was started by mixing serial diluted test compound with the above reaction mixture. The absorption at 340 nm was monitored continuously for 4 h at 30° C. on a Polarstar Optima or Synergy 2 plate reader. The reaction rate was calculated using the 1.5 to 2.5 h time frame. Percent inhibition was obtained by comparison of reaction rate with that of a control (i.e. with no test compound). IC50 values were calculated from a series of percent inhibition values determined at a range of inhibitor concentrations using software routines as implemented in the GraphPad Prism software package.

[2] = molecular target: T2, unphosphorylated c-FMS kinase (uFMS, Seq. ID no. 1) (Homo sapiens, UniProt P07333); experiment: uFMS kinase enzymatic assay (pyruvate kinase/lactate dehydrogenase coupled); format: biochemical; conditions: ATP 500 μM, rate 3 to 4 h
T2 construct: purchased Millipore
T2 sequence (P07333 538-972): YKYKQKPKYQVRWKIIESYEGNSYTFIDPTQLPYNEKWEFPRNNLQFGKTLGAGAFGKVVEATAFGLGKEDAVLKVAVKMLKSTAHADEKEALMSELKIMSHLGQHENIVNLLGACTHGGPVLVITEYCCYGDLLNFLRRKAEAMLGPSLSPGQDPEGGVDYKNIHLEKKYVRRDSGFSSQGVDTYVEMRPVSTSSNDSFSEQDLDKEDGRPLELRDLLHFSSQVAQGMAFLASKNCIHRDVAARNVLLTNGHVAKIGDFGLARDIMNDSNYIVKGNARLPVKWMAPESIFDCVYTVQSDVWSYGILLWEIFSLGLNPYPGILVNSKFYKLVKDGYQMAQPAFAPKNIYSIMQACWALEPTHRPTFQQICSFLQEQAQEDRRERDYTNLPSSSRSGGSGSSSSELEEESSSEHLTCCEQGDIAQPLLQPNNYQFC
Description: uFMS Kinase (Seq. ID No. 1) Assay
Activity of unphosphorylated c-FMS kinase (uFMS, Seq. ID no. 1) was determined by following the production of ADP from the FMS kinase reaction with ATP and poly E4Y as substrates through coupling with the pyruvate kinase/lactate dehydrogenase system (e.g., Schindler et al. Science (2000) 289: 1938-1942). In this assay, the oxidation of NADH (thus the decrease at A340 nm) was continuously monitored spectrophometrically. The reaction mixture (100 μL) contained FMS (purchased from Millipore) (10 nM), polyE4Y (1 mg/mL), MgCl2 (10 mM), pyruvate kinase (4 units), lactate dehydrogenase (0.7 units), phosphoenol pyruvate (1 mM), NADH (0.28 mM) and ATP (500 μM) in 90 mM Tris buffer containing 0.2% octyl-glucoside and 1% DMSO, pH 7.5. The inhibition reaction was started by mixing serial diluted test compound with the above reaction mixture. The absorption at 340 nm was monitored continuously for 4 hours at 30° C. on Synergy 2 plate reader. The reaction rate was calculated using the 3 to 4 h time frame. Percent inhibition was obtained by comparison of reaction rate with that of a control (i.e. in the absence of test compound). IC50 values were calculated from a series of percent inhibition values determined at a range of inhibitor concentrations using software routines as implemented in the GraphPad Prism software package.

[3] = system: M-NFS-60 cells; experiment: M-NFS-60 cell proliferation assay (resazurin); format: cell-based; conditions: 67 h incubation
Description: M-NFS-60 cells (catalog #CRL-1838) were obtained from the American Type Culture Collection (ATCC, Manassas, Va.). Briefly, cells were grown in suspension in RPMI 1640 medium supplemented with 10% characterized fetal bovine serum (Invitrogen, Carlsbad, Calif.), 0.05 mM 2-mercaptoethanol, and 20 ng/mL mouse recombinant macrophage colony stimulating factor (M-CSF) at 37° C., 5% CO2, and 95% humidity. Cells were allowed to expand until reaching saturation at which point they were subcultured or harvested for assay use.
M-NFS-60 Cell Proliferation Assay
A serial dilution of test compound was dispensed into a 384-well black clear bottom plate (Corning, Corning, N.Y.). Two thousand five hundred cells were added per well in 50 μL complete growth medium. Plates were incubated for 67 h at 37° C., 5% CO2, and 95% humidity. At the end of the incubation period 10 μL of a 440 μM solution of resazurin (Sigma, St. Louis, Mo.) in PBS was added to each well and incubated for an additional 5 h at 37° C., 5% CO2, and 95% humidity. Plates were read on a Synergy2 reader (Biotek, Winooski, Vt.) using an excitation of 540 nm and an emission of 600 nm. IC50 values were calculated from a series of percent inhibition values determined at a range of inhibitor concentrations using software routines as implemented in the GraphPad Prism software package.

[4] = system: osteoclast precursors; experiment: Osteoclast tartrate-resistant acid phosphatase assay; format: cell-based; conditions: RANKL and M-CSF, 7-14 days, tartrate-resistant acid phosphatase activity
Description: Osteoclast Tartrate-Resistant Acid Phosphatase Assay
A serial dilution of test compound was dispensed into a 384-well black clear bottom plate (Nalge Nunc International, Rochester, N.Y.). Compound was diluted by the addition of DMEM media supplemented with 10% characterized fetal bovine serum (Invitrogen, Carlsbad, Calif.). Diluted compound was transferred to a 384-well black clear bottom plate. Two-thousand five hundred osteoclast precursors (Lonza, Walkersville, Md.) were added per well in growth media containing Receptor Activator of Nuclear Factor Kappa-beta ligand (RANKL) and M-CSF (R&D Systems, Minneapolis, Minn.). Plates were incubated for 7-14 days at 37 degrees Celsius, 5% CO2, and 95% humidity to allow differentiation of osteoclast precursors. At the end of the incubation period, 10 μL of supernatant from each well was transferred to a clear 384-well plate. Tartrate-resistant acid phosphatase activity in the supernatant samples was determined using an acid phosphatase assay kit (Sigma, St. Louis, Mo.). Absorbance was measured at 550 nm using a plate reader. Data was analyzed using Prism software (Graphpad, San Diego, Calif.) to calculate IC50 values.

[5] = molecular target: T3, unphosphorylated c-KIT kinase (uKIT, Seq. ID no. 2) (Homo sapiens, UniProt P10721); experiment: uKit kinase enzymatic assay (pyruvate kinase/lactate dehydrogenase coupled); format: biochemical; conditions: ATP 2000 μM, rate 3 to 4 h
T3 construct: uKit with N-terminal GST fusion used for screening
Description: uKit Kinase (Seq. ID No. 2) Assay
Activity of unphosphorylated c-KIT kinase (uKIT, Seq. ID no. 2) was determined by following the production of ADP from the KIT kinase reaction with ATP and poly E4Y as substrates through coupling with the pyruvate kinase/lactate dehydrogenase system (e.g., Schindler et al. Science (2000) 289: 1938-1942). In this assay, the oxidation of NADH (thus the decrease at A340 nm) was continuously monitored spectrophometrically. The reaction mixture (100 μl) contained unphosphorylated KIT (12 nM), polyE4Y (1 mg/mL), MgCl2 (10 mM), pyruvate kinase (4 units), lactate dehydrogenase (0.7 units), phosphoenol pyruvate (1 mM), and NADH (0.28 mM) and ATP (2000 μM) in 90 mM Tris buffer containing 0.2% octyl-glucoside and 1% DMSO, pH 7.5. The inhibition reaction was started by mixing serial diluted test compound with the above reaction mixture. The absorption at 340 nm was monitored continuously for 4 hours at 30° C. on Synergy 2 plate reader (BioTech). Reaction rates around 3 to 4 h time frame were used to calculate % inhibitions, from which IC50 values were generated.

T1 sequence (P09619 557-1106): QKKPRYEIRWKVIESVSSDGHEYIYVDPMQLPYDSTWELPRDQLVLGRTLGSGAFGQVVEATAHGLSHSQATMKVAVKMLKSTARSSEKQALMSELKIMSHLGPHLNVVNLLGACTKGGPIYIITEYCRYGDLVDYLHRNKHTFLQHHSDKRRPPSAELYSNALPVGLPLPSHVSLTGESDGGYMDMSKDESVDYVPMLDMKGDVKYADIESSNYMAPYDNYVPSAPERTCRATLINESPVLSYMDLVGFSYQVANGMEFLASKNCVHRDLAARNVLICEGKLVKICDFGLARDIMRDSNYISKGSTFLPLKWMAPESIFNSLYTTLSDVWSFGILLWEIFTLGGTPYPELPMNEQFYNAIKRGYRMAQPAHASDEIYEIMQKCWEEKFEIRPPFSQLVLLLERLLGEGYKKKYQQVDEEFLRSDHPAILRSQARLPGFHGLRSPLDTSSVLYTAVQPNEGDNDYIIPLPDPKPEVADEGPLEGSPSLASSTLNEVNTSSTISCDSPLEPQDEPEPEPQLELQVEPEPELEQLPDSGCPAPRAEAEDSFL
T3 sequence (P10721 with tags, fused parts or gaps): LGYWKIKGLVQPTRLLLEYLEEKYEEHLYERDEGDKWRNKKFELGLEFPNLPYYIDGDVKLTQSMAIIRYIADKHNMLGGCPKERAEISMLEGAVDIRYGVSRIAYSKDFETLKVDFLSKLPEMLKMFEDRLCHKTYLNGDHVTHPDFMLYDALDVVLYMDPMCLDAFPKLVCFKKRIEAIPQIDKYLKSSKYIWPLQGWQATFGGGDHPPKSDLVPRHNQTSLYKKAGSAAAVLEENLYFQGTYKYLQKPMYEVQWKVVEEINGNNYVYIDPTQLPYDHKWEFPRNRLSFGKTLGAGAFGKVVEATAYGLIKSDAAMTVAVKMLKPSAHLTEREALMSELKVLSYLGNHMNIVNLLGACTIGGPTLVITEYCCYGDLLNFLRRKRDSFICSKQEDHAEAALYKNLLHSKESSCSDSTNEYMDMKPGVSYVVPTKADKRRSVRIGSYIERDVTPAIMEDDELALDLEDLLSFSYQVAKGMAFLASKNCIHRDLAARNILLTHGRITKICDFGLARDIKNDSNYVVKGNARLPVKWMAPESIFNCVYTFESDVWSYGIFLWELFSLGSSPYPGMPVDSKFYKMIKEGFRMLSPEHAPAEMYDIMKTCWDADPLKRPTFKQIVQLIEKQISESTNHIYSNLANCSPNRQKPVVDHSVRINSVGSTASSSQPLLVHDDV

Compound | IC50 [1] [nM] | IC50 [2] [nM] | IC50 [4] [nM] | IC50 [5] [nM] | IC50 [3] [nM]
CC(=O)Nc1cc(Oc2ccc(-n3nc(C(C)(C)C)[nH]c3=O)nc2C)ccn1 [Example 11, N-(4-((6-(3-(tert-butyl)-5-oxo-4,5-dihydro-1H-1,2,4-triazol-1-yl)-2-methylpyridin-3-yl)oxy)pyridin-2-yl)acetamide] | > 1000 | 10 to 100 | 100 to 1000 | > 1000 | 100 to 1000
COCCc1nn(-c2ccc(Oc3ccnc(-c4cnn(C)c4)c3)c(C)n2)c(=O)[nH]1 [Example 15, 3-(2-methoxyethyl)-1-(6-methyl-5-((2-(1-methyl-1H-pyrazol-4-yl)pyridin-4-yl)oxy)pyridin-2-yl)-1H-1,2,4-triazol-5(4H)-one] | > 1000 | 10 to 100 | 100 to 1000 | > 1000 | > 1000
Cc1cn(-c2cc(Oc3ccc(-n4nc(C(C)(C)C)[nH]c4=O)nc3C)ccn2)cn1 [Example 19, 3-(tert-butyl)-1-(6-methyl-5-((2-(4-methyl-1H-imidazol-1-yl)pyridin-4-yl)oxy)pyridin-2-yl)-1H-1,2,4-triazol-5(4H)-one] | > 1000 | 10 to 100 | 100 to 1000 | > 1000 | 100 to 1000
Cc1nc(-n2nc(C(C)(C)C)[nH]c2=O)ccc1Oc1ccnc(NC(=O)C2CCN(C)CC2)c1 [Example 21, N-(4-((6(3-(tert-butyl)-5-oxo-4,5-dihydro-1H-1,2,4-triazol-1-yl)-2-methylpyridin-3-yl)oxy)pyridin-2-yl)-1-methylpiperidine-4-carboxamide] | > 1000 | 100 to 1000 | 100 to 1000 | > 1000 | > 1000
CNC(=O)c1cc(Oc2ccc(-n3nc(C(C)(C)C)[nH]c3=O)nc2)ccn1 [Example 26, 4-((6-(3-(tert-butyl)-5-oxo-4,5-dihydro-1H-1,2,4-triazol-1-yl)pyridin-3-yl)oxy)-N-methylpicolinamide] | > 1000 | 10 to 100 | 100 to 1000 | > 1000 | > 1000

Further lines, with some results ahead:

IC50 [1] [nM] | IC50 [2] [nM] | IC50 [4] [nM] | IC50 [5] [nM] | Compound | IC50 [3] [nM]
> 1000 | 100 to 1000 | 100 to 1000 | > 1000 | CCc1nc(-n2nc(C(C)(C)C)[nH]c2=O)ccc1Oc1ccnc(-c2cnn(C)c2)c1 [Example 8, 3-(tert-butyl)-1-(6-ethyl-5-((2-(1-methyl-1H-pyrazol-4-yl)pyridin-4-yl)oxy)pyridin-2-yl)-1H-1,2,4-triazol-5(4H)-one] | 100 to 1000
> 1000 | 10 to 100 | 10 to 100 | 100 to 1000 | Cc1ncc(-c2cc(Oc3ccc(-n4nc(C(C)(C)C)[nH]c4=O)nc3C)ccn2)s1 [Example 12, 3-(tert-butyl)-1-(6-methyl-5-((2-(2-methylthiazol-5-yl)pyridin-4-yl)oxy)pyridin-2-yl)-1H-1,2,4-triazol-5(4H)-one] | 10 to 100
 | 100 to 1000 | > 1000 | > 1000 | COCc1nn(-c2ccc(Oc3ccnc(-c4cnn(C)c4)c3)c(C)n2)c(=O)[nH]1 [Example 17, 3-(methoxymethyl)-1-(6-methyl-5-((2-(1-methyl-1H-pyrazol-4-yl)pyridin-4-yl)oxy)pyridin-2-yl)-1H-1,2,4-triazol-5(4H)-one] | > 1000
> 1000 | 10 to 100 | 100 to 1000 | 100 to 1000 | Cc1nc(-n2nc(C(C)(C)C)[nH]c2=O)ccc1Oc1ccnc(-c2cnn(CCO)c2)c1 [Example 18, 3-(tert-butyl)-1-(5-((2-(1-(2-hydroxyethyl)-1H-pyrazol-4-yl)pyridin-4-yl)oxy)-6-methylpyridin-2-yl)-1H-1,2,4-triazol-5(4H)-one] | 100 to 1000
> 1000 | 10 to 100 | 10 to 100 | > 1000 | Cc1nc(-n2nc(C(C)(C)C)[nH]c2=O)ccc1Oc1ccnc(-c2cn(C)cn2)c1 [Example 23, 3-(tert-butyl)-1-(6-methyl-5-((2-(1-methyl-1H-imidazol-4-yl)pyridin-4-yl)oxy)pyridin-2-yl)-1H-1,2,4-triazol-5(4H)-one] | 100 to 1000
> 1000 | 100 to 1000 | 100 to 1000 | > 1000 | Cc1nc(-n2nc(C(C)(C)C)[nH]c2=O)ccc1Oc1ccnc(-c2cn[nH]c2)c1 [Example 24, 1-(5-((2-(1H-pyrazol-4-yl)pyridin-4-yl)oxy)-6-methylpyridin-2-yl)-3-(tert-butyl)-1H-1,2,4-triazol-5(4H)-one] | 100 to 1000
